From patent publication US20140341916A1, “THERAPEUTIC COMBINATIONS AND METHODS OF TREATING MELANOMA” (Genentech, Inc., priority 2011, published 2014)

Columns and labels:
[1] = system: COLO 829 melanoma xenograft; assay: In vivo efficacy, subcutaneous melanoma xenograft, tumor volume / % TGI; set-up: species or system mice
Description: The average tumor volumes were determined from 10 animals per group. Tumor volumes were measured twice per week until study end. Tumor volumes were measured in two dimensions (length and width) using UltraCal IV calipers (Model 54 10 111, Fred V. Fowler Company; Newton, Mass.). The following formula was used with Excel, version 12.2.8 (Microsoft; Redmond, Wash.) to calculate tumor volume: Tumor Volume (mm3)=(length×width)×0.5
To analyze the repeated measurement of tumor volumes from the same animals over time, a mixed-modeling Linear Mixed Effects (LME) approach was used (Pinheiro et al. 2009). This approach can address both repeated measurements and a modest drop-out rate due to non-treatment-related termination of animals prior to study end. Cubic regression splines were used to fit a non-linear profile to the time courses of log 2 tumor volume at each dose level. These non-linear profiles were then related to dose within the mixed model. Tumor growth inhibition (TGI) as a percentage of vehicle was calculated as percent area under the fitted curve (AUC) per day in relation to the vehicle, using the following formula:
To get uncertainty intervals (UIs) for % TGI, the fitted curve and the fitted covariance matrix were used to generate a random sample as an approximation to the distribution of % TGI. The random sample is composed of 1000 simulated realizations of the fitted-mixed model, where the % TGI has been recalculated for each realization. Here, in the reported UI is the value for which 95% of the time, the recalculated values of % TGI will fall in this region given the fitted model. The 2.5 and 97.5 percentiles of the simulated distribution were used as the upper and lower UIs.
The COLO 829 xenograft model was chosen as representative of medium levels of ETBR expression, further increasing the stringency of the combination studies. Tumors were grown to an average size of approximately 200 mm^3, whereupon animals were randomized into groups of 9 each. An appropriate vehicle control (Klucel LF) or G00044364.1-12 (RG7204) at doses of 10 mpk or 30 mpk were administered orally twice a day for 21 days starting on day 0.

[2] = system: ETBR transcript; assay: ETBR transcript level in melanoma cell lines, Taqman, normalized to RPL19; format: cell-based, human; conditions: 24 h
Description: (§1) Melanoma cell lines UACC-257X2.2, A2058, COLO 829, IPC-298 (ATCC) were treated with a BRAF inhibitor drug (“BRAFi”), specifically RG7204 at varying concentrations by adding the appropriate drug volume to cells in culture for 24 h on four-well dishes.
(§2) To determine the effect of BRAFi on ETBR and control ribosomal protein L19 (RPL19) transcript levels, the following experiments were performed. Cells treated with RG7204 for 24 h were harvested from plates by scraping and processed for total RNA using Qiashredder and RNeasy mini kits (79654, 74104 from Qiagen, Valencia, Calif.). Taqman assays were set up using reagents from Applied Biosystems (ABI, Foster City, Calif.) and assayed using 7500 Real Time PCR machine and software from ABI. Primer-probe sets were designed with primers flanking a fluorogenic probe dual labeled with Reporter dye FAM and quencher dye TAMRA.
(§3) Melanoma cell lines A2058, COLO 829, SK23-MEL and IPC-298 (ATCC) were treated with a MEK inhibitor drug (“MEKi-973” or “MEKi-623”), at varying concentrations (0 μM, 0.01 μM, 0.1 μM or 1 μM) by adding the appropriate drug volume to cells in culture for 24 h on four-well dishes.
as §2, with “MEKi” for “BRAFi”, “ETBR” for “ETBR and control ribosomal protein L19 (RPL19)”, “performed as described above in Example 3.” for “performed.”, “either MEKi-973” for “RG7204”

[3] = system: ETBR total protein; assay: ETBR total protein in melanoma cell lines, Western blot; format: cell-based, human; conditions: 24 h
Description: as §1
To test whether the increase in ETBR transcripts due to BRAFi treatment also results in any changes in ETBR total protein levels, Western blot experiments were performed on the same cell lines treated with BRAFi RG7204 as described above. For Western blotting, the following reagents were used: for detection of proteins: an anti-ETBR in-house generated monoclonal antibody 1H1.8.5, anti-Phospho-p44/42 MAPK (Erk1/2) (Thr202/Tyr204) antibody (9101, Cell Signaling Technology), anti-p44/42 MAPK (Erk1/2) antibody (9102, Cell Signaling Technology) and as controls, a rabbit polyclonal anti-GAPDH (glyceraldehyde-3-phosphate dehydrogenase) antibody (PA1-987; Affinity Bioreagents) and mouse monoclonal anti-β-Tubulin antibody (556321, BD Pharmingen). The results for UACC-257X2.2 are shown in FIG. 4B, the results for A2058 are shown in FIG. 8B, the results for COLO 829 are shown in FIG. 6B and the results for IPC-298 are shown in FIG. 10.
as §3
To test whether the increase in ETBR transcripts due to MEKi treatment also results in any changes in ETBR total protein levels, Western blot experiments were performed on cell lines COLO829 (BRAF^V600E), A2058 (BRAF^V600E), SK23-MEL (BRAF^WT/RAS^WT), or IPC-298 (BRAF^WT/RAS^[…]) which were treated with MEKi-973 as described above. For Western blotting, the following reagents were used: for detection of proteins: an anti-ETBR in-house generated monoclonal antibody 1H1.8.5, anti-Phospho-p44/42 MAPK (Erk1/2) (Thr202/Tyr204) antibody (9101, Cell Signaling Technology), anti-p44/42 MAPK (Erk1/2) antibody (9102, Cell Signaling Technology) and as controls, a rabbit polyclonal anti-GAPDH (glyceraldehyde-3-phosphate dehydrogenase) antibody (PA1-987; Affinity Bioreagents) and mouse monoclonal anti-β-Tubulin antibody (556321, BD Pharmingen). The results for A2058 are shown in FIG. 15A treated with MEKi-623 and 15B treated with MEKi-973, the results for COLO 829 are shown in FIG. 12A treated with MEKi-623 and 12B treated with MEKi-973, the results for SK23-MEL are shown in FIG. 19A treated with MEKi-623 and 19B treated with MEKi-973, and the results for IPC-298 are shown in FIG. 22A treated with MEKi-623 and 22B treated with MEKi-973.

[4] = system: Phosphorylated erk; assay: PD study, phosphorylated erk in COLO 829 tumors, Western blot; format: in vivo, mice; conditions: 30 mpk BRAFi RG7204
Description: A2058 or COLO 829 tumors were grown to an average size of approximately 200 mm^3, whereupon animals were randomized into groups of 5-6 each. For the BRAFi PD study, an appropriate vehicle control (Klucel LF) or RG7204 at doses of 10 mpk or 30 mpk were administered twice a day for 3 days (FIG. 27A). For the MEKi PD study, an appropriate vehicle control or MEKi-973 at doses of 5 mpk and 10 mpk were administered orally once a day for 3 days (FIG. 27B). Flash frozen tumors harvested at end of study were homogenized and processed for RNA and/or protein. Taqman assays were set up using reagents from Applied Biosystems (ABI, Foster City, Calif.) and assayed using 7500 Real Time PCR machine and software from ABI. Primer-probe sets were designed with primers flanking a fluorogenic probe dual labeled with Reporter dye FAM and quencher dye TAMRA. […]
Phosphorylated erk and total erk protein levels were evaluated in the tumors by western blotting using the following reagents: for detection of proteins: anti-Phospho-p44/42 MAPK (Erk1/2) (Thr202/Tyr204) antibody (9101, Cell Signaling Technology), anti-p44/42 MAPK (Erk1/2) antibody (9102, Cell Signaling Technology) and mouse monoclonal anti-β-Tubulin antibody (556321, BD Pharmingen) as control (FIG. 26).

CCCS(=O)(=O)Nc1ccc(F)c(C(=O)c2c[nH]c3ncc(-c4ccc(Cl)cc4)cc23)c1F [RG7204, propane-1-sulfonic acid {3-[5-(4-chlorophenyl)-1H-pyrrolo[2,3-b]pyridine-3-carbonyl]-2,4-difluoro-phenyl}-amide]
% TGI Single Agent BRAFi vs. control ([1]; BRAFi Qdx21 10 mg/kg): 27% | % TGI Single Agent BRAFi vs. control ([1]; BRAFi Qdx21 30 mg/kg): 83% | ETBR transcript vs untreated control cells ([2]; A2058 cells): appears to increase the ETBR transcripts | ETBR transcript vs untreated control cells ([2]; COLO 829 cells): appears to increase the ETBR transcripts | ETBR transcript vs untreated control cells ([2]; UACC-257X2.2 cells): appears to increase the ETBR transcripts | ETBR total protein level vs untreated control cells ([3]; A2058 cells (BRAF V600E)): appears to increase the ETBR total protein levels | ETBR total protein level vs untreated control cells ([3]; COLO 829 cells (BRAF V600E)): appears to increase the ETBR total protein levels | ETBR total protein level vs untreated control cells ([3]; IPC-298 cells (BRAF wild-type, RAS mutant)): does not appear to increase ETBR levels | ETBR total protein level vs untreated control cells ([3]; UACC-257X2.2 cells): appears to increase the ETBR total protein levels | Perk in tumors vs control [4]: appears to inhibit Perk in vivo
